Here are results for 12 compounds from PubChem BioAssay (NCI).

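In this assay, cells in 96-well plates receive the compound at five concentrations for 48 hours. Endpoints are linearly interpolated between the surrounding concentrations. TGI: total growth inhibition.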

Among the test systems are HL-60(TB) leukemia; CAKI-1 renal; OVCAR-8 ovarian; NCI/ADR-RES ovarian; A498 renal; COLO 205 colon; HCT-15 colon; OVCAR-5 ovarian; DU-145 prostate; TK-10 renal; NCI-H460 lung; HCC-2998 colon; K-562 leukemia; HOP-92 NSCLC; U251 CNS; SK-OV-3 ovarian; HT29 colon; CCRF-CEM leukemia.
Assay in all cases: NCI tumour cell line growth inhibition, 48 h

In the case of `Cc1cc(S(=O)(=O)n2ccnc2Oc2ccccc2)c(SSc2cc(Cl)c(C)cc2S(=O)(=O)n2ccnc2Oc2ccccc2)cc1Cl`, the TGI in the assay on HL-60(TB) leukemia, in the assay on CAKI-1 renal, in the assay with OVCAR-8 ovarian, in the assay on NCI/ADR-RES ovarian, in the assay on A498 renal and with COLO 205 colon was over 100 µM throughout. In addition, the TGI in the assay with HCT-15 colon, in the assay on OVCAR-5 ovarian, in the assay on DU-145 prostate, in the assay with TK-10 renal, in the assay with NCI-H460 lung and with HCC-2998 colon was over 100 µM in each case. Also, the TGI with K-562 leukemia, in the assay on HOP-92 NSCLC, with U251 CNS, with SK-OV-3 ovarian and with HT29 colon was over 100 µM in each case.
With `CCN(CC)CCn1c2cc3c(cc2c(=O)c2cccnc21)OCO3`, the TGI with HL-60(TB) leukemia, in the assay with CCRF-CEM leukemia, in the assay on CAKI-1 renal, in the assay with OVCAR-8 ovarian, in the assay with NCI/ADR-RES ovarian and with A498 renal was over 10 µM throughout. The TGI was over 10 µM in the assay with COLO 205 colon; over 10 µM in the assay on HCT-15 colon; over 10 µM with OVCAR-5 ovarian; over 10 µM with DU-145 prostate; over 10 µM in the assay with TK-10 renal; 7.79 µM with NCI-H460 lung. Further, the TGI with HCC-2998 colon, in the assay with HOP-92 NSCLC, in the assay with U251 CNS, in the assay on SK-OV-3 ovarian and in the assay on HT29 colon was over 10 µM in each case.
For the compound `COC(=O)[C@@H]1C2OC(C)(C)OC2CN1C(=O)OCc1ccccc1` (stereo partly drawn), the TGI in the assay on HL-60(TB) leukemia, in the assay on CAKI-1 renal, with OVCAR-8 ovarian, in the assay with NCI/ADR-RES ovarian, in the assay with A498 renal and in the assay on COLO 205 colon was over 100 µM each time. In addition, the TGI with HCT-15 colon, with OVCAR-5 ovarian, in the assay with DU-145 prostate, in the assay on TK-10 renal, in the assay with NCI-H460 lung and in the assay on HCC-2998 colon was over 100 µM each time. Further, the TGI in the assay with K-562 leukemia, in the assay on HOP-92 NSCLC, with U251 CNS, in the assay with SK-OV-3 ovarian and in the assay on HT29 colon was over 100 µM throughout.
On to `COC(=O)[C@]12CCC(C)(C)C[C@H]1C1=CC[C@@H]3[C@@]4(C)CC[C@H](OC5OC(CO)C(O)C(O)C5OC5OC(CO)C(O)C(O)C5O)C(C)(C)[C@@H]4CC[C@@]3(C)[C@]1(C)CC2` (stereo partly drawn), for which the TGI in the assay with HL-60(TB) leukemia is 19.4 µM; in the assay with CCRF-CEM leukemia it was 33.8 µM; in the assay on CAKI-1 renal, 21 µM; in the assay on OVCAR-8 ovarian it was 34 µM; with NCI/ADR-RES ovarian it was 29.1 µM; with A498 renal it was 23.5 µM. The TGI in the assay on COLO 205 colon was 10.4 µM; in the assay with HCT-15 colon it was 25 µM; in the assay with OVCAR-5 ovarian it was 30.5 µM; in the assay with DU-145 prostate it was 24.5 µM; with NCI-H460 lung, 30.2 µM; in the assay on HCC-2998 colon, 37.9 µM. Also, the TGI was determined as 25.4 µM in the assay on K-562 leukemia; 13 µM in the assay on HOP-92 NSCLC; 26.3 µM in the assay on U251 CNS; 36.1 µM with SK-OV-3 ovarian; 22.1 µM in the assay on HT29 colon.
Turning to `CCCNC(C#N)c1ccc(OCCCCCCCCCCOc2ccc(C(C#N)NCCC)cc2)cc1` (stereo not drawn), the TGI with HL-60(TB) leukemia was 43 µM; in the assay on CCRF-CEM leukemia, 43.7 µM; in the assay on OVCAR-8 ovarian, over 100 µM; in the assay on NCI/ADR-RES ovarian, over 100 µM; with A498 renal it was 42.7 µM; with COLO 205 colon it was over 100 µM. In addition, the TGI was over 100 µM with HCT-15 colon; over 100 µM in the assay with OVCAR-5 ovarian; over 100 µM with DU-145 prostate; 69.2 µM in the assay with TK-10 renal; over 100 µM with NCI-H460 lung; over 100 µM in the assay on HCC-2998 colon. The TGI in the assay with K-562 leukemia was 76.3 µM; in the assay on HOP-92 NSCLC, 66.1 µM; in the assay with U251 CNS, 42.7 µM; in the assay on SK-OV-3 ovarian, over 100 µM; in the assay on HT29 colon, over 100 µM.
Turning to `N#Cc1c(C#N)c(-c2ccco2)n(-c2ccccc2)c1N`, the TGI was over 100 µM in the assay on HL-60(TB) leukemia; over 100 µM with CCRF-CEM leukemia; over 100 µM with CAKI-1 renal; 73.1 µM in the assay with OVCAR-8 ovarian; over 100 µM in the assay with NCI/ADR-RES ovarian; over 100 µM in the assay on A498 renal. Moreover, the TGI with COLO 205 colon, in the assay on HCT-15 colon, in the assay on OVCAR-5 ovarian, in the assay on DU-145 prostate, with TK-10 renal and with HCC-2998 colon was over 100 µM throughout. Further, the TGI in the assay on K-562 leukemia, in the assay on HOP-92 NSCLC, in the assay with U251 CNS, in the assay with SK-OV-3 ovarian and with HT29 colon was over 100 µM each time.
For the compound `COc1ccc(C2=Nn3c(nc4sc(-c5ccccc5)cc4c3=O)SC2)cc1`, the TGI in the assay on HL-60(TB) leukemia, with CCRF-CEM leukemia, in the assay with CAKI-1 renal, in the assay with OVCAR-8 ovarian, in the assay with NCI/ADR-RES ovarian and in the assay on A498 renal was over 100 µM each time. For the same compound, the TGI with COLO 205 colon, with HCT-15 colon, with OVCAR-5 ovarian, with DU-145 prostate, in the assay with TK-10 renal and in the assay on NCI-H460 lung was over 100 µM throughout. Besides, the TGI in the assay with HCC-2998 colon, in the assay with HOP-92 NSCLC, with U251 CNS, in the assay on SK-OV-3 ovarian and in the assay with HT29 colon was over 100 µM each time.
Turning to `O=C1/C(=C/c2ccccc2)N=C(c2ccccc2)N1C1Nc2cc3c(cc2S1)NC(N1C(=O)/C(=C/c2ccccc2)N=C1c1ccccc1)S3` (stereo not drawn), the TGI is over 100 µM with HL-60(TB) leukemia; over 100 µM in the assay with CCRF-CEM leukemia; over 100 µM with CAKI-1 renal; over 100 µM with OVCAR-8 ovarian; over 100 µM in the assay on NCI/ADR-RES ovarian; 68 µM with A498 renal. The TGI in the assay with HCT-15 colon is 82.9 µM; with OVCAR-5 ovarian, over 100 µM; with DU-145 prostate it was over 100 µM; with TK-10 renal, over 100 µM; in the assay on NCI-H460 lung, over 100 µM; in the assay with HCC-2998 colon, 4.76 µM. Besides, the TGI is over 100 µM in the assay on K-562 leukemia; 8.27 µM with HOP-92 NSCLC; over 100 µM with U251 CNS; over 100 µM with SK-OV-3 ovarian; over 100 µM in the assay with HT29 colon.
Take `O=C(O)c1nc2ccccc2nc1Nc1ccc(F)cc1`: the TGI in the assay on HL-60(TB) leukemia was 78.8 µM; in the assay on CCRF-CEM leukemia, 79.9 µM; in the assay on CAKI-1 renal it was 63.4 µM; with OVCAR-8 ovarian, over 100 µM; in the assay with NCI/ADR-RES ovarian it was over 100 µM; in the assay on A498 renal, over 100 µM. For the same compound, the TGI in the assay with COLO 205 colon is 76.2 µM; in the assay with HCT-15 colon, 89.8 µM; with OVCAR-5 ovarian, over 100 µM; with DU-145 prostate, over 100 µM; with TK-10 renal, over 100 µM; in the assay with NCI-H460 lung, over 100 µM. Also, the TGI is over 100 µM in the assay with HCC-2998 colon; 94.1 µM with K-562 leukemia; 85.9 µM with HOP-92 NSCLC; over 100 µM in the assay on U251 CNS; over 100 µM with HT29 colon.
With `O=C1CSC(c2ccc(Cl)cc2)N1c1ccc(-c2ccc(-n3c(-c4ccccc4)nc4ccccc4c3=O)cc2)cc1` (stereo not drawn), the TGI with HL-60(TB) leukemia is over 100 µM; with CCRF-CEM leukemia it was over 100 µM; in the assay with CAKI-1 renal, over 100 µM; in the assay with OVCAR-8 ovarian, over 100 µM; in the assay with NCI/ADR-RES ovarian, 82.5 µM; in the assay on A498 renal, over 100 µM. Also, the TGI with COLO 205 colon, in the assay with HCT-15 colon, in the assay on DU-145 prostate, in the assay on TK-10 renal, with NCI-H460 lung and in the assay on HCC-2998 colon was over 100 µM throughout. For the same compound, the TGI was over 100 µM in the assay on K-562 leukemia; 97.9 µM in the assay on HOP-92 NSCLC; 85.8 µM in the assay with U251 CNS; over 100 µM in the assay on SK-OV-3 ovarian; 41.5 µM in the assay on HT29 colon.
Turning to `N#Cc1c(N)c2c(c(-c3ccccc3)c1-c1ccccc1)C(=O)N(NC(=O)c1ccccc1)C2=O`, the TGI in the assay with HL-60(TB) leukemia, in the assay with CCRF-CEM leukemia, in the assay on CAKI-1 renal, with OVCAR-8 ovarian, in the assay on NCI/ADR-RES ovarian and in the assay with A498 renal was over 100 µM throughout. For the same compound, the TGI in the assay on COLO 205 colon, in the assay with HCT-15 colon, in the assay on OVCAR-5 ovarian, with DU-145 prostate, with TK-10 renal and in the assay on NCI-H460 lung was over 100 µM each time. The TGI in the assay with HCC-2998 colon, with K-562 leukemia, in the assay on HOP-92 NSCLC and in the assay on U251 CNS was over 100 µM throughout.
Take `OCc1ccc2c(c1)CC1(C2)Cc2cc3c(cc2C1)CCC3`: the TGI in the assay with HL-60(TB) leukemia is over 100 µM; in the assay on CCRF-CEM leukemia, over 100 µM; in the assay with CAKI-1 renal it was over 100 µM; in the assay with OVCAR-8 ovarian it was over 100 µM; in the assay on NCI/ADR-RES ovarian, over 100 µM; in the assay on A498 renal it was 35.4 µM. Moreover, the TGI was over 100 µM with HCT-15 colon; over 100 µM with OVCAR-5 ovarian; over 100 µM with DU-145 prostate; over 79.6 µM in the assay on TK-10 renal; over 100 µM with NCI-H460 lung; over 100 µM with HCC-2998 colon. Besides, the TGI in the assay on K-562 leukemia was over 100 µM; in the assay on HOP-92 NSCLC it was over 74 µM; with U251 CNS, over 100 µM; with SK-OV-3 ovarian, over 100 µM; with HT29 colon, over 100 µM.
